The compound `CCOc1cc2c(cc1OCC)[C@@H]1CCCC[C@@H]1N=C2c1ccc(O)cc1` (racemic) registered a melting point of 232 to 234 °C. The compound `CCCCc1nc(Cl)c(C(=O)O)n1Cc1ccc2oc(-c3ccccc3-c3nnn[nH]3)c(Br)c2c1` came in with a melting point of 183 to 185 °C. To `COC(=O)C(=CNc1ccc(O)cc1C)C(=O)C=CC1=CCCC1` belongs 148 to 151 °C; to `CC(=O)OCCOCn1cc(C)c(=O)[nH]c1=O`, 105 to 107 °C; to `C[C@@H]1Cc2ccsc2[C@H](C)N1CCCNS(=O)(=O)c1ccc(N)cc1` (relative stereo), 134 to 138 °C. In the case of `CCc1c(C(=O)O)ccc(OCc2ccccc2)c1Cl`, the melting point fell in the range of 208 to 210 °C. For `CC(=O)OCC(=O)C1C(C)CC2C3CC(Cl)C4=CC(=O)C=CC4(C)C3C(O)CC21C` (centres undefined), the melting point is 208 °C.

In the case of `NC(=O)C1CCN(c2ncncc2Br)CC1`, the melting point fell in the range of 188 to 190 °C. `CC(C)c1ncc(CN2C(=O)C3(COc4cc5c(cc43)OCO5)c3ccccc32)o1` (centres undefined) had a melting point of 75 to 77 °C.

In turn, `CCN(C)C1=NS(=O)(=O)c2ccc(Cl)cc2N1` returned a melting point above 220 °C. As to `CS(=O)(=O)c1ccc(C(CC2CCCC2)C(=O)Nc2nccs2)cc1Br` (centres undefined), the melting point lay within 106 to 107 °C. In turn, `O=C1C[C@@H]2CCC(c3ccccc3)=C[C@@H]2O1` (relative stereo) gave a melting point of 90 to 92 °C. As to `CCCCCN(CCC12CC3CC(CC(C3)C1)C2)C(=O)NCC(C)Cc1ccncc1` (centres undefined), the melting point lay in the range of 103 to 104 °C. Next, `COc1c(C)c(N2CCN(c3ccc4c(c3)OC(F)(F)O4)CC2)c(C)c2c1OC(C)(C)C2`: 149 to 151 °C; `Nc1cc(C(=O)O)cc(S(N)(=O)=O)c1Oc1ccccc1`: 252 to 253 °C. The compound `COC(=O)[C@@H]1Cc2ccccc2N1C(=O)[C@H](CC(=O)O)NC(=O)C(F)(F)F` yielded a melting point of 157 to 158 °C. The compound `CC(=O)N1CCc2cc(C(O)CN(Cc3ccccc3)Cc3ccccc3)ccc21` (centres undefined) showed a melting point of 116 °C. Take `CCCCCCCCCCCCCCCCn1c2cc(Cl)ccc2c2ccc(Cl)cc21`: the melting point is 82 to 83 °C. Turning to `O=C(CCCCCNC(=O)CCCc1ccccc1)NO`, the melting point lay in the range of 92 to 93 °C. Compound `COc1cc(OC)c2c(=O)c3c(Cl)ccc([N+](=O)[O-])c3[nH]c2c1` registered a melting point of 291 to 294 °C. `O=c1[nH]ncc2[nH]c(-c3ccc(OC(F)F)c(OC4CC4)c3)c(C3CC3)c12` had a melting point of 248 to 249 °C. Compound `CN1C(=O)CN(C(=O)N2CC(=O)N(C)c3ccc(Cl)cc3C2c2ccccc2)C(c2ccccc2)c2cc(Cl)ccc21` (centres undefined) registered a melting point of 263 to 266 °C.

In turn, `COc1ccccc1CC(=NCc1cccs1)N1C[C@@H]2C(=O)CCC(c3ccccc3)(c3ccccc3)[C@@H]2C1` registered a melting point of 88 °C. Regarding `CCCN1CCC(O)(c2cccc(F)c2F)C1` (single isomer, unassigned; (-)), the melting point lay within 95 to 98 °C.

`CCC(CC)C1CC(=O)C(C(=O)NS(=O)(=O)c2ccc(Cl)cc2)C(=O)C1` (centres undefined) gave a melting point of 121 to 122 °C. Compound `CCOC(=O)CC[C@H](NC(=O)c1csc(CCCc2cc3c(=O)[nH]c(N)nc3[nH]2)c1)C(=O)OCC` showed a melting point of 81 to 82 °C. `Cc1cc(C#N)cc(C(=O)c2c(C(C)C)c(=O)[nH]c(=O)n2C(C)C)c1` registered a melting point of 278 to 280 °C. As for `CN1CCC[C@H]1c1cnc(Cl)cc1C(O)c1cc(Cl)ncc1[C@@H]1CCCN1C`, the melting point was 80 to 82 °C. To `Clc1cc2nc(NC3CC3)[nH]c2cc1Cl` belongs 223 to 225 °C; to `Cc1cc2c(cc1Br)nc1n2CCC1`, 167 to 170 °C; to `CCOC(=O)c1sc2ccc(O)c(C=Nc3ccc(OC)cc3)c2c1Cl`, 162 to 163 °C. To `CC#CCCn1ncc2c(N)c3c(nc21)CN(CCCC)C3=O` belongs 171 to 172 °C; to `CN(C)C=C1C(=O)N(C)C(=O)N1c1cccc(C(F)(F)F)c1`, 103 to 104 °C; to `O=C(O)c1ccc(NCCCCCc2ccccc2)cc1`, 141 to 143 °C. To `N#Cc1cnc2n(c1=O)CCC2` belongs 119 to 121 °C; to `NC(=O)CCN1CCN(C2Cc3cc(Cl)ccc3Sc3cc(F)ccc32)CC1` (centres undefined), 179 to 182 °C. Compound `O=C1NC(=S)NC(=O)C1=Cc1ccc[nH]1` showed a melting point of 280 °C. Compound `COc1cncc(-c2cc(=S)ss2)n1` registered a melting point of 149 °C. For the compound `CCOC(=O)CC1C(=O)N(CCc2c[nH]c3ccccc23)CCN1C(=O)c1ccccc1` (centres undefined), the melting point amounted to 144 °C.

Compound `C#CCn1c(=O)sc2cc(F)c(-c3ccc(C(F)(F)F)n(C)c3=O)cc21` returned a melting point of 150 to 151 °C. For `Cc1c(-n2ccnc2)[nH]c2ccccc12`, the melting point is 156 to 158 °C. Next, `CC(C)(C)OC(=O)/C=C/c1ccc(C(=C2CCCCCCC2)c2ccc(O)cc2)cc1`: 171 to 172 °C. To `Clc1ccc(C(Cn2ccnc2)C2CCCC2)c(Cl)c1` (centres undefined) belongs 97.6 °C; to `O=C(O)c1ccc(-c2nc(-c3ccccc3)co2)cc1`, 275 to 276 °C; to `CCN1c2ncccc2C(=O)N(C)c2ccc(-c3ccn(C)c3)nc21`, 187 to 188 °C.

Regarding `CN1CCN(c2cccc(Oc3cc(=O)[nH]c4ccccc34)c2)CC1`, the melting point fell in the range of 218 to 221 °C. For `CCCCOc1cc(F)ccc1[N+](=O)[O-]`, the melting point was in the range of 75 to 76 °C.

Turning to `CC#CCOc1cc(Oc2ccc(C#N)cc2)ncn1`, the melting point is 162 °C.

In the case of `Cc1cc(Nc2ccccc2C(=O)O)n(C)n1`, the melting point was in the range of 210 to 211 °C. Next, `COC(=O)c1ccc(-n2ccc(C)n2)cc1C(F)(F)F`: 59 to 61 °C; `CN(C)C1CCC(c2c[nH]c3ccc(NC(=N)c4cccs4)cc23)CC1` (centres undefined): 104 to 106 °C; `CCOC(=O)CCc1ccc(N2CCN(c3ccc(C(=N)NC(=O)OCC)cc3)C2=O)cc1`: above 335 °C. As to `N=C(N)Nc1nc(CCCCNc2c(NCCCCc3csc(NC(=N)N)n3)c(=O)c2=O)cs1`, the melting point lay within 228 to 229 °C. As for `Oc1cc2c3cc(O)c(O)cc3n(Cc3cccnc3)c2cc1O`, the melting point fell in the range of 290 to 294 °C. On to `O=S(=O)(c1ccc(Nc2ccnc3cc(C(F)(F)F)ccc23)cc1)N1CCN(c2ccccn2)CC1`, for which the melting point was in the range of 202 to 203 °C.

Take `O=[N+]([O-])c1cccc(CN2CCOCC2)c1`: the melting point was in the range of 48 to 50 °C.

With `Clc1cnc2ccc(Cl)c(Cl)c2n1`, the melting point lay in the range of 118 to 119 °C. Take `N#CC=Cc1ccc([N+](=O)[O-])cc1`: the melting point was 112 °C.

In turn, `CC(c1noc(C(F)F)n1)N1C(=O)C2(COc3cc4c(cc32)OCO4)c2c(Cl)cccc21` (centres undefined) showed a melting point of 179 to 182 °C. Consider `Oc1ccc(-c2cc3cc(F)cc(F)c3o2)cc1`, for which the melting point was in the range of 152 to 154 °C. Next, `N#Cc1cccc2c1C(=O)C(O)=C(O)C2=O`: 305 to 312 °C.

Take `Cc1nn(-c2ccc(C(=N)N)cc2)c(=O)n1-c1ccc(CCC(=O)O)cc1`: the melting point lay within 303 to 305 °C. Turning to `OCc1ccc(OCc2ccccc2)cn1`, the melting point was 66 to 68 °C. As to `Cc1cc2n(n1)C(c1cccc([N+](=O)[O-])c1)N=N2` (centres undefined), the melting point was in the range of 269 to 275 °C. Next, `CC(C)N(C)S(=O)(=O)NC(=O)c1cc(N)c(F)cc1Cl`: 160 to 162 °C. The compound `C(=Cc1cc(OCc2ccccc2)cc(OCc2ccccc2)c1)c1ccc(OCc2ccccc2)cc1` yielded a melting point of 156 to 158 °C. To `Nc1nc2[nH]c(CCC#Cc3ccc(C(=O)N[C@@H](CCC(=O)O)C(=O)O)s3)cc2c(=O)[nH]1` belongs 196 to 197 °C; to `CCC(=C(c1ccccc1)c1ccc(OCC2CO2)cc1)C1CCCC1` (centres undefined), 79 to 82 °C. Next, `Cc1c(SCCCSc2nnnn2CC(=O)O)ccnc1CSc1ccncc1`: 185 to 187 °C; `CC(C)n1nc(-c2cc(NC(=O)OC(C)(C)C)cnc2-c2ccccc2)ccc1=O`: 221 to 223 °C.

`COC(=O)c1c(C(=O)OC)c(-c2ccc(OC)c(OC)c2)c2c(OC)c(OC)c(OC)cc2c1O` had a melting point of 178 to 179 °C.

With `COc1ccc(S(=O)(=O)n2cc(F)c(N)nc2=O)cc1`, the melting point lay in the range of 158 to 162 °C. To `COC(=O)C(=CNc1cc(-c2ccccc2Cl)sc1C(=O)O)SC` belongs 80 to 85 °C. As for `CCOc1cc2ncc(C#N)c(NCc3cccc(Br)c3)c2cc1OCC`, the melting point was in the range of 156 to 159 °C.

Compound `CCOC(=O)C1=C(COCC(C)(O)Cn2cnnc2)NC(C)=C(C(=O)OC)C1c1cccc(Cl)c1Cl` (centres undefined) yielded a melting point of 172 to 176 °C.

`CCCCCS(=O)(=O)NCCCc1ccc(OCCOC)cc1Oc1ncc(C(F)(F)F)cc1Cl` returned a melting point of 87 to 90 °C. As to `Cn1nnc(Cc2ccc(NC(=O)/C=C/c3cnn(C)c3-c3ccc(F)cc3)cc2)n1`, the melting point lay within 159 to 161 °C.

Turning to `CCc1cc(NC(=O)N2CCN(c3cc(C)cc(C)c3)CC2)c(N2CCNCC2)nc1C`, the melting point lay within 100 to 102 °C.

`Cc1c(NC(=O)N2CC[C@H](O[Si](C)(C)C(C)(C)C)[C@H]2CO)ccc(C#N)c1Cl` came in with a melting point of 174 to 176 °C. Compound `N#CCOc1cccc2[nH]c3ccccc3c12` had a melting point of 120 °C. Consider `Clc1ccccc1OCC1(c2ccccc2)CCN(Cc2ccccc2)CCO1` (centres undefined), for which the melting point lay in the range of 114 to 115 °C.

`COc1ccc(C)nc1I` displayed a melting point of 45 to 50 °C. In the case of `CC(C)c1cc(C(C)(C)C)cc(Br)c1OCc1ccccc1`, the melting point fell in the range of 47 to 49 °C. `CCCCCCCCCCCCc1ccc(S(=O)(=O)Nc2nncs2)cc1` displayed a melting point of 126 to 127 °C. `CCCOc1ccccc1-c1nc2nc(NC)ncc2c(=O)[nH]1` showed a melting point of 235 to 236 °C. On to `COc1ccccc1C=CC(=O)CC(=O)C=Cc1ccccc1OC`, for which the melting point was 121 to 123 °C. Regarding `COc1cc2c(cc1Nc1ncc(Cl)c(Nc3cc(C#N)ccc3OC)n1)CCN(CC(=O)N(C)C)CC2`, the melting point lay in the range of 86 to 105 °C. To `CCCCCC(=O)N1C(CCCCC)NC(=O)CC1C(=O)O` (centres undefined) belongs 55 to 56 °C; to `CC(=S)NCC1CN(c2ccc(-c3csc(Cn4cnnn4)n3)c(F)c2)C(=O)O1` (centres undefined), 96 to 98 °C.

These data come from a melting point compilation (Tetko et al.; mined from patent text by program, amines drawn as free bases though some values may be those of a salt).
